According to ChEMBL document CHEMBL5143523, “Construction and activity evaluation of novel benzodioxane derivatives as dual-target antifungal inhibitors” (Eur J Med Chem, 2022):
Converted amounts (≈) assume the structure as drawn. The source made the active and inactive calls. No cut-off for these calls is given here.

Legend:
Pichia kudriavzevii = assay: Antifungal activity against Candida krusei ATCC 6258 assessed as fungal growth inhibition measured after 72 hrs by CLSI protocol based liquid medium dilution method; type: functional
Nakaseomyces glabratus = assay: Antifungal activity against Candida glabrata ATCC 0001 assessed as fungal growth inhibition measured after 72 hrs by CLSI protocol based liquid medium dilution method; type: functional
Candida tropicalis = assay: Antifungal activity against Candida tropicalis ATCC 1369 assessed as fungal growth inhibition measured after 72 hrs by CLSI protocol based liquid medium dilution method; type: functional
Aspergillus fumigatus = assay: Antifungal activity against Aspergillus fumigatus KM8001 assessed as fungal growth inhibition measured after 72 hrs by CLSI protocol based liquid medium dilution method; type: functional
Candida albicans [1] = assay: Antifungal activity against fluconazole resistant Candida albicans strain 17# assessed as fungal growth inhibition measured after 72 hrs by CLSI protocol based liquid medium dilution method; type: functional
Candida albicans [2] = assay: Antifungal activity against fluconazole resistant Candida albicans strain CaR assessed as fungal growth inhibition measured after 72 hrs by CLSI protocol based liquid medium dilution method; type: functional
Candida albicans [3] = assay: Antifungal activity against fluconazole resistant Candida albicans strain 103 assessed as fungal growth inhibition measured after 72 hrs by CLSI protocol based liquid medium dilution method; type: functional
Candida albicans [4] = assay: Antifungal activity against fluconazole resistant Candida albicans strain 901 assessed as fungal growth inhibition measured after 72 hrs by CLSI protocol based liquid medium dilution method; type: functional
Candida albicans [5] = assay: Antifungal activity against fluconazole resistant Candida albicans strain 904 assessed as fungal growth inhibition measured after 72 hrs by CLSI protocol based liquid medium dilution method; type: functional
Candida albicans [6] = assay: Induction of apoptosis in Candida albicans ATCC SC5314 cells assessed as live cells at 8 ug/ml incubated for 72 hrs by Annexin V-FITC/PI staining based flow cytometry method (reference value: 95.56%); type: functional; details: dose 8 µg/ml
Candida albicans [7] = assay: Induction of apoptosis in Candida albicans ATCC SC5314 cells assessed as necrotic cells at 8 ug/ml incubated for 72 hrs by Annexin V-FITC/PI staining based flow cytometry method (reference value: 3.76%); type: functional; details: dose 8 µg/ml
Candida albicans [8] = assay: Induction of apoptosis in Candida albicans ATCC SC5314 cells assessed as late apoptotic cells at 8 ug/ml incubated for 72 hrs by Annexin V-FITC/PI staining based flow cytometry method (reference value: 0.12%); type: functional; details: dose 8 µg/ml
Candida albicans [9] = assay: Antifungal activity against Candida albicans ATCC SC5314 assessed as change in squalene level at 4 ug/ml incubated for 48 hrs by LC-MS analysis; type: functional; details: dose 4 µg/ml
Candida albicans [10] = assay: Antifungal activity against Candida albicans ATCC SC5314 assessed as change in eburicol level at 4 ug/ml incubated for 48 hrs by LC-MS analysis (reference value: 1.4%); type: functional; details: dose 4 µg/ml
Candida albicans [11] = assay: Antifungal activity against Candida albicans ATCC SC5314 assessed as change in unknown sterol level at 4 ug/ml incubated for 48 hrs by LC-MS analysis (reference value: 4.3%); type: functional; details: dose 4 µg/ml
Squalene epoxidase ERG1 = target: T1, Squalene epoxidase ERG1 (Candida albicans, UniProt Q92206); assay: Inhibition of SE in Candida albicans ATCC SC5314 incubated for 30 mins using squalene as substrate in presence of NADPH by spectrophotometer analysis
T1 sequence (Q92206 whole entry): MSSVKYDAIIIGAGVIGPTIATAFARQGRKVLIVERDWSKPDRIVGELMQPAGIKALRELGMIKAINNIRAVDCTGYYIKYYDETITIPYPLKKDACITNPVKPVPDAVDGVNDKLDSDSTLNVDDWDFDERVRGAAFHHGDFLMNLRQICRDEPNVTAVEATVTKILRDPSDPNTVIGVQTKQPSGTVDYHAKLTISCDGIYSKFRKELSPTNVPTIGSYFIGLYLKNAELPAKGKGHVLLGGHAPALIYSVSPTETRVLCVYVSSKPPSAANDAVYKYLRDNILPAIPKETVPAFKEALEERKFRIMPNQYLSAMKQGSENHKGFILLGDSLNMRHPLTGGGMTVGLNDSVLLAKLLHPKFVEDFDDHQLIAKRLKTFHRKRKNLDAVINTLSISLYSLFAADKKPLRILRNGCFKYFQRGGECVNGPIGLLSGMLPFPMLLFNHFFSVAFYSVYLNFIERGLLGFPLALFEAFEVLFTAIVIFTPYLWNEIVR

[12] = Hepatotoxicity in mouse infected with Candida albicans ATCC SC5314 assessed as change in plasma AST level at 4 mg/kg, ip administered ever other day for 12 days; type: toxicity, organism-based; details: in vivo, 288 h, time 12 day
[13] = Hepatotoxicity in mouse infected with Candida albicans ATCC SC5314 assessed as change in plasma ALT level at 4 mg/kg, ip administered ever other day for 12 days; type: toxicity, organism-based; details: in vivo, 288 h, time 12 day
Candida albicans [14] = assay: Antifungal activity against fluconazole resistant Candida albicans strain 901 assessed as decrease in fungal cell density at 4 ug/ml by fluorescence microscopy; type: functional, organism-based; details: dose 4.0 µg/ml
Candida albicans [15] = assay: Induction of morphological changes in Candida albicans assessed as structural damage in fungal cell wall at 4 ug/ml measured after 48 hrs by TEM analysis; type: functional, organism-based; details: dose 4.0 µg/ml
Candida albicans [16] = assay: Induction of morphological changes in Candida albicans assessed as appearance of edema cavitation at 4 ug/ml measured after 72 hrs by TEM analysis; type: functional, organism-based; details: dose 4.0 µg/ml
Candida albicans [17] = assay: Induction of morphological changes in Candida albicans assessed as disappearance of endoplasmic reticulum at 4 ug/ml measured after 72 hrs by TEM analysis; type: functional, organism-based; details: dose 4.0 µg/ml
Candida albicans [18] = assay: Induction of morphological changes in Candida albicans assessed as enlargement of nucleus at 4 ug/ml measured after 72 hrs by TEM analysis; type: functional, organism-based; details: dose 4.0 µg/ml
Candida albicans [19] = assay: Induction of morphological changes in Candida albicans assessed as leakage of cellular contents at 4 ug/ml measured after 72 hrs by TEM analysis; type: functional, organism-based; details: dose 4.0 µg/ml
Mus musculus [20] = assay: In vivo antifungal activity against Candida albicans ATCC SC5314 infected mouse assessed as reduction in fungal infection region at 4 mg/kg, ip administered ever other day for 12 days; type: functional, organism-based; details: time 12.0 day
Mus musculus [21] = assay: In vivo antifungal activity against Candida albicans ATCC SC5314 infected mouse assessed as increase in body weight at 4 mg/kg, ip administered ever other day for 12 days; type: functional, organism-based; details: time 12.0 day
Mus musculus [22] = assay: In vivo antifungal activity against Candida albicans ATCC SC5314 infected mouse model assessed as regular arrangement of intercellular space at 4 mg/kg, ip administered ever other day for 12 days by hematoxyin-eosin staining based microscopic analysis; type: functional, organism-based; details: time 12.0 day
Mus musculus [23] = assay: In vivo antifungal activity against Candida albicans ATCC SC5314 infected mouse model assessed as disappearance of pathogenic fungi at 4 mg/kg, ip administered ever other day for 12 days by hematoxyin-eosin staining based microscopic analysis; type: functional, organism-based; details: time 12.0 day
[24] = Toxicity in mouse infected with Candida albicans ATCC SC5314 assessed as pathological changes in heart at 4 mg/kg, ip administered ever other day for 12 days by hematoxylin and eosin staining based histopathological analysis; type: organism-based; details: in vivo, 288 h, time 12 day
[25] = Toxicity in mouse infected with Candida albicans ATCC SC5314 assessed as pathological changes in lung at 4 mg/kg, ip administered ever other day for 12 days by hematoxylin and eosin staining based histopathological analysis; type: organism-based; details: in vivo, 288 h, time 12 day
[26] = Toxicity in mouse infected with Candida albicans ATCC SC5314 assessed as pathological changes in kidney at 4 mg/kg, ip administered ever other day for 12 days by hematoxylin and eosin staining based histopathological analysis; type: organism-based; details: in vivo, 288 h, time 12 day

`CC(C)[C@H](NC(=O)c1cccc2c1OCCO2)C(=O)N[C@@H](Cn1cncn1)c1ccccc1` gave an MIC50 (Pichia kudriavzevii) of 0.25 µg/mL (≈ 0.556 µM), an MIC50 (Nakaseomyces glabratus) of 0.25 µg/mL (≈ 0.556 µM) and an MIC50 (Candida tropicalis) of 0.125 µg/mL (≈ 0.278 µM). It also gave an MIC50 (Aspergillus fumigatus) of 2 µg/mL (≈ 4.45 µM), an MIC50 (Candida albicans [1]) of 1 µg/mL (≈ 2.22 µM) and an MIC50 (Candida albicans [2]) of 0.5 µg/mL (≈ 1.11 µM). It also gave an MIC50 (Candida albicans [3]) of 0.5 µg/mL (≈ 1.11 µM), an MIC50 (Candida albicans [4]) of 1 µg/mL (≈ 2.22 µM) and an MIC50 (Candida albicans [5]) of 2 µg/mL (≈ 4.45 µM). For the same compound, the Activity (Candida albicans [6]) was 54.5%, the Activity (Candida albicans [7]) was 43.31% and the Activity (Candida albicans [8]) was 1.78%. For the same compound, the Activity (Candida albicans [9]) was 27.5%, the Activity (Candida albicans [10]) was 28.9% and the Activity (Candida albicans [11]) was 6.4%. The IC50 (Squalene epoxidase ERG1) was 621 nM, the Activity [12] was 85.5 IU/L and the Activity [13] was 50.5 IU/L. For the same compound, the Activity (Candida albicans [14]) was “Active”, the Activity (Candida albicans [15]) was “Active” and the Activity (Candida albicans [16]) was “Active”. The Activity (Candida albicans [17]) was “Active”, the Activity (Candida albicans [18]) was “Active” and the Activity (Candida albicans [19]) was “Active”. The Activity (Mus musculus [20]) was “Active”, the Activity (Mus musculus [21]) was “Active” and the Activity (Mus musculus [22]) was “Active”. The Activity (Mus musculus [23]) was “Active”, the Activity [24] was “Non-Toxic” and the Activity [25] was “Non-Toxic”. The Activity [26] was “Non-Toxic”.
